Test results from patent US7723023B2, “Use of intrinsic reporters of cell signaling for high content drug profiling and toxicity screening” (Mount Sinai School of Medicine, priority 2001, dated 2010).
“And” between values parts separate entries of the source, which are not always exact repeats. Identical values can stand only once.

Columns and labels:
[1] = tested on: gonadotrope cell line LβT2 cells; experiment: Time course of IRC response to GnRH in presence and absence of cyclohexamide (CHX); assay type: cell-based, mouse; conditions: 100 nM GnRH, protein synthesis inhibitor cyclohexamide
Method: The cells were treated with 100 nM GnRH in the presence and absence of the inhibitor of protein synthesis, cyclohexamide (CHX). […] No other proteins need to be synthesized to induce activation of this IRC. The use of a time course such as that illustrated allow selection of the optimum time point or time points after stimulation at which to assay the IRCs to provide the most complete map of the cell global signal transduction response.
The proper time point or time points after exposure can be determined experimentally in any system by performing a time course of the gene response. If a single time point after exposure is assayed, it is best to select a time at which most IRCs are continuing to show an increase in the level of expression. This is usually between 30 minutes and 1 hour.

[2] = tested on: GnRHR-expressing LβT2 gonadotrope cell line; experiment: Focused cDNA microarray analysis (FMA) of genes regulated by GnRH in LβT2 cells; assay type: cell-based, mouse
Method: Cell Culture and Sample Preparation: LβT2 cells were obtained and maintained at 37° C. in 5% CO2 in humidified air in DMEM (Mediatech) containing 10% fetal bovine serum (Gemini). For experiments. 40-50×10^6 cells were seeded in 15 cm dishes. The medium was replaced 21 hours later with DMEM containing 25 mM HEPES (Mediatech) and glutamine. […] The incubation was stopped by aspirating the incubation medium and adding 10 ml of lysis buffer (4M guanidinium thiocyanate, 25 mM sodium citrate, pH 7.0, 0.5% N-lauroyl-sarcosine, and 0.1 M 2-mercaptoethanol). Total RNA was isolated according to the method of Chomczynski and Sacchi (1987) supra. Approximately 400 μg total RNA was obtained from each plate.
Microarray Development: The 956 clones were selected from an NIA 15K library (Tanaka et al. (2000) Proc. Natl. Acad. Sci. USA 97:9127-9132) or purchased from Research Genetics. The gene selection was partially based on literature searches. A large number of genes known to be induced at early time points in other experimental systems were included as well as 67 putative “housekeeping” genes. Plasmids were purified using the Qiaprep 96 Turbo Miniprep kit. Following insert amplification by PCR, products were confirmed by agarose gel electrophoresis and purified with Qiaquick 96 kit (Qiagen). The product was dried, dissolved in 18 μl H2O. 50% DMSO or 3×SSC and spotted (3 hits/feature, 3 features/gene) with a GMS 417 Arrayer (Affymetrix) on CMT-GAPS coated glass slides (Corning). DNA was fixed either by incubating the slide 3.5 hours at 40° C. followed by 10 min at 100° C. or for 2 hours at 85° C. or by UV crosslinking with 90 mJ (Stratalinker, Stratagene). Arrays were stored light-protected at room temperature until use. A Cy5-labeled oligomer complementary to one of the amplification primers was designed to test printing and attachment efficiency (5′-CGTTTTACAACGTCGTGACTGGG-3′) (SEQ ID NO:1). 12% of the cDNAs on the array were confirmed by sequencing, including randomly selected clones on each 96-well plate and all genes that were identified as regulated.
RNA Labeling and Hybridization. 20 μg of total RNA from each sample was labeled with either Cy3 or Cy5 using the Atlas indirect labeling kit (Clontech) as indicated by the manufacturer. Following array prehybridization in 6×SSC, 0.5% SDS, 1% BSA at 42° C. for 45 min, the probe was denatured and hybridized in 24 μl 50% formamid, 6×SSC, 0.5% SDS. 5×Denhardt's with 2.4 μg salmon sperm DNA, 10 μg poly dA at 42° C. (room temperature for test oligomer hybridization) for 16 hours. Following 10 min washes in 0.1×SSC, 0.1% SDS, and twice in 0.1×SSC the slide was scanned using the GMS 418 Scanner (Affymetrix).
Data Analysis. […] The median background-subtracted feature intensity was utilized for further analysis. Overall differences in the signal intensity of the two wavelengths measured on each slide (λ=532 nm and λ=635 nm) were corrected using the locally linear robust scatterplot smoother implemented in the loess function in S Plus Professional (Insightful Corporation). Predictors were generated using a symmetric distribution, span=0.75 (Venables and Ripley (1999) Modern Applied Statistics with S-Plus. Spring, N.Y. Measurement precision was estimated by determining the median coefficient of variation within slides for each gene:
[formula] Genes were selected according to the following algorithm (i) ±fold-change of >1.3; (ii) |t|>3; (iii) signal intensity in at least one channel >1% of the median signal intensity value; (iv) criteria i-iii observed in at least 2 of 3 experiments.
Microarray Identification of Genes Activated by GnRH is LβT2 Cells. The response to GnRH was studied in the GnRHR-expressing LβT2 gonadotrope cell line (Turgeon et al. (1996) Mol Endocrinol. 10:439-450). Three separate experiments comparing the effects of 1 hour exposure to GnRH or vehicle were performed. […]

[3] = 100 nM GnRH vs vehicle, 1 hour, LβT2 cells
[4] = two clones spotted in different locations on the arrays, 100 nM GnRH, 1 hour

gonadotropin releasing hormone [GnRH]
levels of gly96 in the presence of CHX [1]: increase
1κB fold-change, Microarray (n = 3) [2, 3]: 1.7 ± 0.2 fold
Egr1 fold-change, Microarray (n = 3) [2, 3]: 12.9 ± 3.8 fold
Egr2 fold-change, Microarray (n = 3) [2, 3]: 1.5 ± 0.2 fold
Gem fold-change, Microarray (n = 3) [2, 3]: 1.7 ± 0.2 fold
HSP30 fold-change, Microarray (n = 3) [2, 3]: 1.3 ± 0.2 fold
Klf4 fold-change, Microarray (n = 3) [2, 3]: 1.7 ± 0.3 fold
Klf-like EST fold-change, Microarray (n = 3) [2, 3]: 2.3 ± 0.3 fold
LRG21 fold-change, Microarray (n = 3) [2, 3]: 31.2 ± 16.6 fold
MKP1/3CH134 fold-change, Microarray (n = 3) [2, 3]: 1.4 ± 0.1 fold
NMDMC fold-change, Microarray (n = 3) [2, 3]: 1.4 ± 0.3 fold
Nr4a1/nur77 fold-change, Microarray (n = 3) [2, 3]: 5.9 ± 1.5 fold
Nrf2 fold-change, Microarray (n = 3) [2, 3]: 1.3 ± 0.2 fold
PRL1 fold-change, Microarray (n = 3) [2, 3]: 2.0 ± 0.4 fold
Period1 fold-change, Microarray (n = 3) [2, 3]: 2.1 ± 0.1 fold
Rgs2 fold-change, Microarray (n = 3) [2, 3]: 4.0 ± 1.3 fold
TSC22 fold-change, Microarray (n = 3) [2, 3]: 3.4 ± 0.4 fold
c-fos fold-change, Microarray (n = 3) [2, 3]: 12.5 ± 4.0 fold
c-jun fold-change, Microarray (n = 3) [2, 3]: 3.8 ± 0.6 fold
gly96 fold-change, Microarray (n = 3) [2, 3]: 1.7 ± 0.6 fold
ler2/Pip92 fold-change, Microarray (n = 3) [2, 3]: 5.2 ± 1.2 fold
transgelin fold-change, Microarray (n = 3) [2, 3]: 1.4 ± 0.1 fold
β-actin fold-change, Microarray (n = 3) [2, 3]: 2.0 ± 0.5 fold
γ-actin fold-change, Microarray (n = 3) [2, 3]: 2.7 ± 0.3 fold
Time course of induced genes, FMA ([2]; cells exposed to GnRH for 3 hours and 6 hours): nearly all of the induced genes return to baseline levels of expression by 3 hours
Nrf2 degree of change on microarray, two different clones [2, 4]: 1.3±0.2 and 1.3±0.1
PRL1 degree of change on microarray, two different clones [2, 4]: 2.0±0.4 and 1.5±0.4
Rgs2 degree of change on microarray, two different clones [2, 4]: 4.0±1.3 and 2.9±1.2
TSC22 degree of change on microarray, two different clones [2, 4]: 3.4±0.4 and 3.3±0.6
